In the NIST ThermoML archive (doi:10.1016/j.tca.2019.01.018):
± gives the expanded uncertainty stated by the source.

What was measured:
[1] = Ring tensiometer
[2] = xn = mol fraction of the nth substance listed; settings: Ring tensiometer

CCCCn1cc[n+](C)c1.F[B-](F)(F)F [1-butyl-3-methylimidazolium tetrafluoroborate]
[1]
Settings	surface tension liquid-gas [mN/m]
298.15 K	44.6 ± 0.84
308.15 K	43.65 ± 0.83
318.15 K	42.95 ± 0.83
328.15 K	42.25 ± 0.82
338.15 K	41.55 ± 0.82

CCCCn1cc[n+](C)c1.F[B-](F)(F)F [1-butyl-3-methylimidazolium tetrafluoroborate] + O
surface tension liquid-gas [mN/m], [2]
Settings	x1 = 0.02	x1 = 0.04	x1 = 0.06	x1 = 0.08	x1 = 0.1	x1 = 0.2	x1 = 0.4	x1 = 0.6	x1 = 0.8	x1 = 1
298.15 K	49.07 ± 1.5	47.16 ± 0.84	47.05 ± 0.83	46.95 ± 0.83	46.8 ± 0.83	46.3 ± 0.83	45.9 ± 0.83	45.4 ± 0.83	45 ± 0.83	44.6 ± 0.84
308.15 K	48.15 ± 1.5	45.95 ± 0.83	45.85 ± 0.82	45.75 ± 0.82	45.65 ± 0.82	45.45 ± 0.82	44.95 ± 0.82	44.55 ± 0.82	44.35 ± 0.83	43.65 ± 0.83
318.15 K	47.35 ± 1.4	45.15 ± 0.82	45.05 ± 0.81	44.95 ± 0.81	44.85 ± 0.81	44.65 ± 0.81	44.15 ± 0.81	43.75 ± 0.82	43.55 ± 0.82	42.95 ± 0.83
328.15 K	46.55 ± 1.4	44.35 ± 0.82	44.25 ± 0.81	44.15 ± 0.81	44.05 ± 0.81	43.85 ± 0.81	43.35 ± 0.81	42.95 ± 0.81	42.75 ± 0.82	42.25 ± 0.82
338.15 K	45.75 ± 1.4	43.55 ± 0.81	43.45 ± 0.8	43.35 ± 0.8	43.25 ± 0.8	43.05 ± 0.8	42.55 ± 0.8	42.15 ± 0.81	41.95 ± 0.81	41.55 ± 0.82

CCn1cc[n+](C)c1.F[B-](F)(F)F [1-ethyl-3-methylimidazolium tetrafluoroborate]
[1]
Settings	surface tension liquid-gas [mN/m]
298.15 K	52.05 ± 1
308.15 K	51.65 ± 1
318.15 K	51.25 ± 1
328.15 K	50.85 ± 1
338.15 K	50.45 ± 0.99

CCn1cc[n+](C)c1.F[B-](F)(F)F [1-ethyl-3-methylimidazolium tetrafluoroborate] + O
surface tension liquid-gas [mN/m], [2]
Settings	x1 = 0.02	x1 = 0.04	x1 = 0.06	x1 = 0.08	x1 = 0.1	x1 = 0.2	x1 = 0.4	x1 = 0.6	x1 = 0.8	x1 = 1
298.15 K	60.27 ± 1.2	57.47 ± 0.93	56.49 ± 0.91	55.52 ± 0.9	54.98 ± 0.9	53.92 ± 0.89	53.61 ± 0.91	53.23 ± 0.94	52.73 ± 0.97	52.05 ± 1
308.15 K	59.07 ± 1.1	56.47 ± 0.92	55.69 ± 0.9	54.82 ± 0.89	54.38 ± 0.89	53.52 ± 0.89	53.21 ± 0.91	52.83 ± 0.93	52.33 ± 0.97	51.65 ± 1
318.15 K	57.87 ± 1.1	55.47 ± 0.91	54.89 ± 0.89	54.12 ± 0.89	53.78 ± 0.88	53.12 ± 0.89	52.81 ± 0.9	52.43 ± 0.93	51.93 ± 0.96	51.25 ± 1
328.15 K	56.67 ± 1.1	54.47 ± 0.9	54.09 ± 0.89	53.42 ± 0.88	53.18 ± 0.88	52.72 ± 0.88	52.41 ± 0.9	52.03 ± 0.93	51.53 ± 0.96	50.85 ± 1
338.15 K	55.47 ± 1.1	53.47 ± 0.89	53.29 ± 0.88	52.72 ± 0.88	52.58 ± 0.87	52.32 ± 0.88	52.01 ± 0.9	51.63 ± 0.92	51.13 ± 0.95	50.45 ± 0.99

CCCCCCn1cc[n+](C)c1.F[B-](F)(F)F [1-hexyl-3-methylimidazolium tetrafluoroborate]
[1]
Settings	surface tension liquid-gas [mN/m]
298.15 K	37.22 ± 0.78
308.15 K	36.62 ± 0.78
318.15 K	35.92 ± 0.77
328.15 K	35.22 ± 0.77
338.15 K	34.52 ± 0.76

CCCCCCn1cc[n+](C)c1.F[B-](F)(F)F [1-hexyl-3-methylimidazolium tetrafluoroborate] + O
surface tension liquid-gas [mN/m], [2]
Settings	x1 = 0.3	x1 = 0.4	x1 = 0.5	x1 = 0.6	x1 = 0.7	x1 = 0.8	x1 = 0.9	x1 = 1
298.15 K	38.1 ± 0.79	37.7 ± 0.77	37.54 ± 0.77	37.42 ± 0.77	37.33 ± 0.77	37.26 ± 0.78	37.23 ± 0.78	37.22 ± 0.78
308.15 K	37.26 ± 0.79	37.08 ± 0.76	36.84 ± 0.77	36.82 ± 0.77	36.73 ± 0.77	36.66 ± 0.77	36.63 ± 0.77	36.62 ± 0.78
318.15 K	36.56 ± 0.78	36.28 ± 0.76	36.34 ± 0.76	36.12 ± 0.76	36.03 ± 0.76	35.86 ± 0.77	35.93 ± 0.77	35.92 ± 0.77
328.15 K	35.96 ± 0.78	35.68 ± 0.76	35.64 ± 0.76	35.42 ± 0.76	35.33 ± 0.76	35.26 ± 0.76	35.23 ± 0.76	35.22 ± 0.77
338.15 K	35.26 ± 0.77	34.98 ± 0.75	34.84 ± 0.75	34.72 ± 0.75	34.63 ± 0.75	34.56 ± 0.76	34.53 ± 0.76	34.52 ± 0.76

O [water]
[1]
Settings	surface tension liquid-gas [mN/m]
298.15 K	71.8 ± 1
308.15 K	70.1 ± 1
318.15 K	68.4 ± 1
328.15 K	66.7 ± 0.99
338.15 K	65 ± 0.97

O [water] + CCCCCCn1cc[n+](C)c1.F[B-](F)(F)F
[2], x2 = 0
Settings	surface tension liquid-gas [mN/m]
298.15 K	71.8 ± 1
308.15 K	70.1 ± 1
318.15 K	68.4 ± 1
328.15 K	66.7 ± 0.99
338.15 K	65 ± 0.97

O [water] + CCCCn1cc[n+](C)c1.F[B-](F)(F)F
[2], x2 = 0
Settings	surface tension liquid-gas [mN/m]
298.15 K	71.8 ± 1
308.15 K	70.1 ± 1
318.15 K	68.4 ± 1
328.15 K	66.7 ± 0.99
338.15 K	65 ± 0.97

O [water] + CCn1cc[n+](C)c1.F[B-](F)(F)F
[2], x2 = 0
Settings	surface tension liquid-gas [mN/m]
298.15 K	71.8 ± 1
308.15 K	70.1 ± 1
318.15 K	68.4 ± 1
328.15 K	66.7 ± 0.99
338.15 K	65 ± 0.97
